The values that follow are results of earlier work, collected in patent US20260216324A1, “QS-21 COMPOSITIONS AND PROCESSES FOR PRODUCING THE SAME AND USES THEREFOR” (priority 2022, published 2026).

For series [1] the following is noted: U.S. Pat. No. 5,583,112 (Example 11), isomers derived from bark.
For series [2] the following is noted: U.S. Pat. No. 5,583,112 (Example 11), isomers derived from bark. This is another data set of the same source.
For series [3] the following is noted: prior art; saponins purified from Quillaja saponaria bark extract.

For the compound `CC[C@H](C)[C@H](C[C@H](O)CC(=O)O[C@@H]1[C@H](O)[C@@H](O[C@@H]2O[C@@H](C)[C@H](O[C@@H]3OC[C@@H](O)[C@H](O[C@@H]4OC[C@](O)(CO)[C@H]4O)[C@H]3O)[C@@H](O)[C@H]2O)[C@H](OC(=O)[C@]23CCC(C)(C)C[C@H]2C2=CC[C@@H]4[C@@]5(C)CC[C@H](O[C@@H]6O[C@H](C(=O)O)[C@@H](O)[C@H](O[C@@H]7OC[C@@H](O)[C@H](O)[C@H]7O)[C@H]6O[C@@H]6O[C@H](CO)[C@H](O)[C@H](O)[C@H]6O)[C@@](C)(C=O)[C@@H]5CC[C@@]4(C)[C@]2(C)C[C@H]3O)O[C@@H]1C)OC(=O)C[C@@H](O)C[C@H](O[C@@H]1O[C@@H](CO)[C@H](O)[C@H]1O)[C@@H](C)CC` (single isomer, unassigned) [purified apiose isomer], the “adjuvanticity compared to standard 65:35 QS-21” value in series [1] is “comparable in both adjuvanticity and toxicity to the standard 65:35 (apiose:xylose ratio) QS-21”. For the same compound, the “toxicity compared to standard 65:35 QS-21” value in series [2] was “comparable in both adjuvanticity and toxicity to the standard 65:35 (apiose:xylose ratio) QS-21”.
For `CC[C@H](C)[C@H](C[C@H](O)CC(=O)O[C@@H]1[C@H](O)[C@@H](O[C@@H]2O[C@@H](C)[C@H](O[C@@H]3OC[C@@H](O)[C@H](O[C@@H]4OC[C@@H](O)[C@H](O)[C@H]4O)[C@H]3O)[C@@H](O)[C@H]2O)[C@H](OC(=O)[C@]23CCC(C)(C)C[C@H]2C2=CC[C@@H]4[C@@]5(C)CC[C@H](O[C@@H]6O[C@H](C(=O)O)[C@@H](O)[C@H](O[C@@H]7OC[C@@H](O)[C@H](O)[C@H]7O)[C@H]6O[C@@H]6O[C@H](CO)[C@H](O)[C@H](O)[C@H]6O)[C@@](C)(C=O)[C@@H]5CC[C@@]4(C)[C@]2(C)C[C@H]3O)O[C@@H]1C)OC(=O)C[C@@H](O)C[C@H](O[C@@H]1O[C@@H](CO)[C@H](O)[C@H]1O)[C@@H](C)CC` (single isomer, unassigned) [purified xylose isomer], in series [1], the “adjuvanticity compared to standard 65:35 QS-21” value was “comparable in both adjuvanticity and toxicity to the standard 65:35 (apiose:xylose ratio) QS-21”. The “toxicity compared to standard 65:35 QS-21” value in series [2] is “comparable in both adjuvanticity and toxicity to the standard 65:35 (apiose:xylose ratio) QS-21”.
QS-17: in series [3], the adjuvant activity entry is on record as “adjuvant active”.
Turning to QS-18, the adjuvant activity result in series [3] was “adjuvant active”.
